Test results published in article PMC9468151, “Identification of a binding site on soluble RANKL that can be targeted to inhibit soluble RANK-RANKL interactions and treat osteoporosis” (Nature Communications, 2022).
Several values for one entry are separate records, joined by “and”; a condition that tells them apart may be missing. Identical values can stand only once. Entries after “also recorded” stand apart in the source; their conditions may differ.

Assays:
RAW264.7 cells = assay: In vitro cytotoxicity assay (MTT); assay type: cell-based, mouse; settings: RAW264.7, MTT
Method: MTT assay was used to determine cell viability. RAW264.7 cells in the logarithmic growth phase were cultured in 96-well plates with 6 × 10^3 cells in each well and incubated for 24 h. The surviving cells were then determined by MTT method. […] Cell growth inhibition ratio was calculated as follows: Cellgrowthinhibitionratio%=ODvehicle−ODtreaed/ODvehicle×100%
Cell cytotoxicity CC50 value were conducted by using Nonlinear regression (curve fit) analytic procedure in GraphPad Prism 8.

[1] = tested on: sRANKL induced osteoclast differentiation; assay: In vitro anti-osteoclastogenesis activity determination (TRAP staining); assay type: cell-based, mouse; design: key to inhibition of osteoclastogenesis, dose-response (fig. S2a): % inhibition = 100 − (treated−unstimulated)/(untreated−unstimulated)×100; settings: for inhibition of osteoclastogenesis, dose-response (fig. S2a): three replicate columns; for IC50: read-out: OC IC50 (anti-osteoclastogenesis activity)
Method: Mouse osteoclasts were cultured according to the previously reported protocols. BMMs were plated in 96-well plates at a density of 6 × 10^3 cells/well with complete medium containing 10 ng/mL M-CSF. The following day, cells were then stimulated with 100 ng/mL sRANKL in the presence or absence of compounds with different concentrations every 2 days until osteoclasts formed. In order to calculate IC50, we set 9 concentrations for each compound and untreated and non-sRANKL unstimulating group as controls, each with triplicated repeated wells. After 5 days, cells were fixed with 4% paraformaldehyde and then applied TRAP-staining to identify osteoclasts by using the TRAP-staining kit. Osteoclasts number (OC No.) in each well was counted and the percentage of inhibition ratio was calculated as follows:1 OCinhibitoryratio%=100−OCNo.treated−OCNo.unstimulating/OCNo.untreated−OCNo.unstimulating×100%
The dosages and their correspondent osteoclastogenesis inhibitory activity curve and IC50 value were conducted by using Nonlinear regression (curve fit) analytic procedure in GraphPad Prism 8. Photographs of individual wells were taken using Leica microscope.

[2] = BMMs, M-CSF + 100 ng/mL sRANKL, 5 days, TRAP staining

| Compound | CC50 (RAW264.7 cells) [µM] | inhibition of osteoclastogenesis, dose-response (fig. S2a) ([1]; conc. 0.0023464 μM) | inhibition of osteoclastogenesis, dose-response (fig. S2a) ([1]; conc. 0.00774313 μM) | inhibition of osteoclastogenesis, dose-response (fig. S2a) ([1]; conc. 0.0255523 μM) | inhibition of osteoclastogenesis, dose-response (fig. S2a) ([1]; conc. 0.0843226 μM) | inhibition of osteoclastogenesis, dose-response (fig. S2a) ([1]; conc. 0.278265 μM) | inhibition of osteoclastogenesis, dose-response (fig. S2a) ([1]; conc. 0.918274 μM) | inhibition of osteoclastogenesis, dose-response (fig. S2a) ([1]; conc. 3.0303 μM) | inhibition of osteoclastogenesis, dose-response (fig. S2a) ([1]; conc. 10 μM) | inhibition of osteoclastogenesis, dose-response (fig. S2a) ([1]; conc. 33 μM) | IC50 [1, 2] | OC IC50 (anti-osteoclastogenesis activity) [1, 2] |
| --- | --- | --- | --- | --- | --- | --- | --- | --- | --- | --- | --- | --- |
| CCOC(=O)c1sc(NC(=O)C(=NNc2ccccc2C(=O)OC)C(C)=O)nc1C [S3-00] | 57.2 | 7.803 and 2.07 and 1.592 | 3.981 and 7.325 and 13.535 | -1.274 and 4.936 and 3.025 | 10.6688 and 9.713 and 2.07 | 4.936 and 4.4586 and 8.758 | 21.1783 and 12.5796 and 14.9681 | 46.9745 and 43.6306 and 45.5414 | 57.4841 and 67.9936 and 66.5605 | 93.3121 and 95.2229 and 92.8344 |  |  |
| CCOC(=O)c1sc(NC(=O)C(=NNc2ccccc2O)C(C)=O)nc1C [S3-06] | 202 | -2.117 and 4.235 and 7.166 | 2.28 and -2.606 and 3.746 | 1.792 and 3.746 and -0.1629 | 4.723 and 7.166 and -1.14 | 27.1987 and 24.2671 and 26.2215 | 39.4137 and 37.4593 and 42.3453 | 68.7296 and 60.9121 and 64.3322 | 81.9218 (2×) and 82.899 | 100 | 1.4 µM |  |
| CCOC(=O)c1sc(NC(=O)C(=NNc2ccccc2CO)C(C)=O)nc1C [S3-07] | 49.1 |  |  |  |  |  |  |  |  |  | 2.33 µM | inactive; also recorded: lose osetoclastogenesis inhibitory activities |
| CC(=O)C(=NNc1ccccc1C(=O)O)C(=O)Nc1nc(C)cs1 [S3-08] | > 100 | 1.304 and -3.21 and -2.307 | 3.711 and 2.508 and 1.304 | 3.109 and 3.41 and 5.517 | 6.118 and 6.419 and 8.225 | 18.7563 and 19.0572 and 20.2608 | 29.8897 and 31.0933 and 35.005 | 50.9529 and 40.7222 and 44.6339 | 83.7512 and 85.2558 and 78.6359 | 100 | 2.33 µM and 2.34 µM |  |
| CCOC(=O)c1sc(NC(=O)C(=NNc2cc(C)ccc2C(=O)O)C(C)=O)nc1C [S3-10] | 41.1 | 3.829 and 3.173 and -0.4376 | 4.486 and 2.516 and 3.173 | 5.142 and 3.173 and 7.1116 | 9.409 and 8.096 and 12.3632 | 13.6761 and 23.1947 and 19.256 | 34.0263 and 27.4617 (2×) | 35.3392 and 33.3698 and 37.6368 | 87.1991 and 82.6039 and 90.1532 | 100 |  |  |
| CCOC(=O)c1sc(NC(=O)C(=NNc2c(C)cccc2C(=O)O)C(C)=O)nc1C [S3-11] | 75.2 | 6.678 and -7.003 and 1.303 | -5.049 and 1.792 and -0.6515 | -0.6515 and 3.257 and 0.3257 | 5.212 and -2.117 and 3.746 | 16.4495 and 15.9609 and 19.3811 | 28.1759 and 21.3355 and 30.1303 | 50.1629 and 34.5277 and 49.6743 | 97.557 and 94.1368 and 98.0456 | 100 |  |  |
| CC(=O)C(=NNc1ccccc1C(=O)[O-])C(=O)Nc1nc(C)cs1.[Na+] [S3-12] | 65.8 | 4.4898 and 6.02 and -2.2449 | 6.939 and -1.02 and -1.633 | 4.796 and 0.8163 and -3.469 | 37.8571 and 16.4286 and 7.857 | 39.3878 and 32.9592 and 21.3265 | 55.3061 and 47.3469 and 54.0816 | 74.2857 and 67.551 and 64.4898 | 94.7959 and 77.0408 and 85 | 100 |  |  |
| CCOC(=O)c1sc(NC(=O)C(=NNc2ccc(C)cc2C(=O)O)C(C)=O)nc1C [S3-13] | > 100 | 1.735 and -0.7143 and 2.347 | 1.735 and -2.551 and 3.571 | 7.857 and -4.694 and -0.102 | 11.8367 and 3.878 and -9.592 | 11.2245 and 7.551 and -1.327 | 7.2449 and 6.633 and 3.571 | 7.2449 and 2.959 and -1.327 | 47.6531 and 40.3061 and 42.7551 | 100 | 10.7 µM |  |
| CCOC(=O)c1sc(NC(=O)C(=NNc2ccc(F)cc2C(=O)O)C(C)=O)nc1C [S3-14] | 76.2 | 3.265 and -2.857 and -2.551 | 7.2449 and 0.2041 and -2.857 | 7.2449 and 2.041 and 14.2857 | 37.8571 and 28.9796 and 23.4694 | 54.3878 and 61.4286 and 45.8163 | 73.9796 and 67.2449 and 59.2857 | 88.9796 and 96.3265 and 87.7551 | 98.4694 and 95.7143 and 97.551 | 100 | 0.27 µM |  |
| CC(=O)C(=NNc1ccccc1C(=O)O)C(=O)Nc1ccc(C#N)cn1 [S3-15-1] | 81.2 | 2.8169 and -0.3521 and -2.465 | 2.113 and 9.859 and 10.5634 | 19.3662 and 16.1972 and 17.6056 | 28.169 and 26.7606 and 24.2958 | 28.169 (2×) and 24.2958 | 45.0704 and 44.7183 (2×) | 59.8591 and 57.7465 and 60.9155 | 77.4648 and 79.5775 and 76.0563 | 100 | 1.05 µM |  |
